Data taken from EP4722195A1, “PH-SENSITIVE CATIONIC LIPID AND LIPID NANOPARTICLES” (National University Corporation Hokkaido University, priority 2023, dated 2024).

How the values were obtained:
[1] = Average particle size and polydispersity index of lipid nanoparticles (dynamic light scattering); type: physicochemical
Description: The average particle size (number average value), ζ-average particle size, and polydispersity index (PdI) of the lipid nanoparticles in PBS(-) (pH 7.4), and the zeta potential in 10 mM HEPES buffer (pH 7.4) were measured using an analyzer "Zetasizer Nano ZS ZEN3600" (manufactured by Malvern) utilizing dynamic light scattering.

[2] = Encapsulation rate of lipid nanoparticles (Ribogreen); type: physicochemical
Summary of the method: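 Ribogreen fluorescence (Ex/Em 500/525 nm) measured after mixing sample 1:1 with 10 mM HEPES pH 7.4 buffer with or without Triton X-100. mRNA quantified from a calibration curve of known mRNA dilutions; encapsulation rate (%) calculated from Triton(+) versus Triton(−) signals.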

liver [3] = assay: Fluc activity in the liver of mice administered Fluc mRNA-loaded lipid nanoparticles; type: in vivo, BALB/c mice
Description: Lipid nanoparticles were administered to mice by intravenous injection into the tail vein using a 27G needle. Unless otherwise specified, BALB/c mice (4 to 5 weeks old, female) were used.
First, BALB/c mice (female, 4 weeks old) were intravenously injected with lipid nanoparticles encapsulating Fluc mRNA (Fluc mRNA-loaded lipid nanoparticles) at a dose of 0.1 mg mRNA/kg. Six hours after intravenous injection, the mice were euthanized, each tissue was collected, frozen in liquid nitrogen, and stored at -80°C. The tissues were homogenized in passive lysis buffer (manufactured by Promega) using a bead-type cell disruptor (Micro Smash MS-100R, manufactured by TOMY Seiko). Tissue debris was removed by centrifugation, and the supernatant was collected. Fluc activity in the supernatant was measured using the Luciferase Assay System (E1500, manufactured by Promega) according to the manufacturer's protocol. Luminescence was measured using a luminometer (Luminescencer-PSN, manufactured by ATTO). Protein concentration was determined using a commercially available assay kit (BCA Protein Assay Kit, manufactured by Pierce). Fluc activity was expressed as relative light units (RLU) per mg of protein.
Subsequently, lipid nanoparticles encapsulating Fluc mRNA prepared using TxT-5-5A10, TxT-5-5A12, TxT-5-5A12β, TxT-5-5A14, and TxT-5-5A16 were administered to mice to evaluate luciferase expression levels (Fluc activity) in various tissues. Specifically, each Fluc mRNA-loaded lipid nanoparticle was administered to Balb/c mice at a dose of 0.1 mg mRNA/kg. Six hours after administration, the mice were euthanized, and their organs were collected to measure Fluc activity (RLU/mg protein) (N = 2 or 4).

liver [4] = assay: EGFP expression in liver tissue sections of mice administered EGFP mRNA-loaded lipid nanoparticles (confocal microscopy); type: in vivo, Balb/c mice; settings: Example 27, Fig. 6; EGFP mRNA-loaded lipid nanoparticles TxT/DSPC/chol/PEG-DMG=50/3/47/1.5 (mol%); 24 hours post-administration
Summary of the method: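 Balb/c mice received EGFP mRNA-loaded lipid nanoparticles at 0.2 mg mRNA/kg, with DyLight-649 tomato lectin given i.v. at 40 µg/mouse at 23 h 50 min to mark vascular endothelium. Livers taken at 24 h were sectioned, Hoechst 33342-stained (1 µg/mL), and imaged by confocal laser scanning microscopy.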

[5] = Apparent pKa of lipid nanoparticles (TNS)
[6] = Table 1, Fluc mRNA-loaded lipid nanoparticles, TxT/DSPC/chol/PEG-DMG=50/15/35/1.5 (mol%)
[7] = Table 2, Fluc mRNA-loaded lipid nanoparticles, TxT-5-5A16/DSPC/chol/PEG-DMG=50/X/50-X/1.5 (mol%), DSPC concentration 3 mol %
[8] = Table 2, Fluc mRNA-loaded lipid nanoparticles, TxT-5-5A16/DSPC/chol/PEG-DMG=50/X/50-X/1.5 (mol%), DSPC concentration 6 mol %
[9] = Table 2, Fluc mRNA-loaded lipid nanoparticles, TxT-5-5A16/DSPC/chol/PEG-DMG=50/X/50-X/1.5 (mol%), DSPC concentration 9 mol %
[10] = Table 2, Fluc mRNA-loaded lipid nanoparticles, TxT-5-5A16/DSPC/chol/PEG-DMG=50/X/50-X/1.5 (mol%), DSPC concentration 12 mol %
[11] = Table 2, Fluc mRNA-loaded lipid nanoparticles, TxT-5-5A16/DSPC/chol/PEG-DMG=50/X/50-X/1.5 (mol%), DSPC concentration 15 mol %
[12] = Table 3, Fluc mRNA-loaded lipid nanoparticles, TxT/DSPC/chol/PEG-DMG=50/3/47/1.5 (mol%)
[13] = Table 5, EGFP mRNA-loaded lipid nanoparticles, TxT/DSPC/chol/PEG-DMG=50/3/47/1.5 (mol%), total flow rate 3.0 mL/min
[14] = Example 23, Fig. 2A, TxT-5-5A16/DSPC/chol/PEG-DMG=50/X/50-X/1.5 (mol%), 0.1 mg mRNA/kg, six hours

CCCCCCCCN(CCCCCCCC)C(=O)CCCC(=O)OCC(COC(=O)CCCC(=O)N(CCCCCCCC)CCCCCCCC)(COC(=O)CCCC(=O)N(CCCCCCCC)CCCCCCCC)NC(=O)CCN1CCCCC1 [TxT-5-5A16, 2-(((5-(dioctylamino)-5-oxopentanoyl)oxy)methyl)-2-(3-(piperidin-1-yl)propanamido)propane-1,3-diyl bis(5-(dioctylamino)-5-oxopentanoate)]
Pdl [1, 6]: 0.11
number average particle size [1, 6]: 61.0 nm
ζ-average particle size [1, 6]: 85.6 nm
Pdl [1, 7]: 0.0
number average particle size [1, 7]: 93.3 nm
ζ-average particle size [1, 7]: 114.0 nm
Pdl [1, 8]: 0.04
number average particle size [1, 8]: 78.6 nm
ζ-average particle size [1, 8]: 96.8 nm
Pdl [1, 9]: 0.08
number average particle size [1, 9]: 66.3 nm
ζ-average particle size [1, 9]: 90.2 nm
Pdl [1, 10]: 0.07
number average particle size [1, 10]: 64.4 nm
ζ-average particle size [1, 10]: 85.1 nm
Pdl [1, 11]: 0.14
number average particle size [1, 11]: 60.8 nm
ζ-average particle size [1, 11]: 88.3 nm
Pdl [1, 12]: 0.03
number average particle size [1, 12]: 93.3 nm
ζ-average particle size [1, 12]: 114.0 nm
Pdl [1, 13]: 0.04
number average particle size [1, 13]: 112.5 nm
ζ-average particle size [1, 13]: 132.4 nm
mRNA concentration [2, 6]: 0.020 µg/µL
mRNA encapsulation rate [2, 6]: 96.7%
mRNA concentration [2, 7]: 0.023 µg/µL
mRNA encapsulation rate [2, 7]: 98.8%
mRNA concentration [2, 8]: 0.024 µg/µL
mRNA encapsulation rate [2, 8]: 98.9%
mRNA concentration [2, 9]: 0.024 µg/µL
mRNA encapsulation rate [2, 9]: 98.3%
mRNA concentration [2, 10]: 0.024 µg/µL
mRNA encapsulation rate [2, 10]: 97.0%
mRNA concentration [2, 11]: 0.020 µg/µL
mRNA encapsulation rate [2, 11]: 95.6%
mRNA concentration [2, 12]: 0.023 µg/µL
mRNA encapsulation rate [2, 12]: 98.8%
mRNA concentration [2, 13]: 0.022 µg/µL
mRNA encapsulation rate [2, 13]: 99.2%
Fluc activity in the liver (liver [3]; Example 22, Fig. 1, TxT/DSPC/chol/PEG-DMG=50/15/35/1.5 (mol%), 0.1 mg mRNA/kg intravenous, six hours after administration, comparison among TxT lipids): highest Fluc activity in the liver
Effect of DSPC content on Fluc activity in the liver (liver [3]; [14]): Fluc activity increased as the DSPC content decreased
Fluc activity in the liver, 3 mol% DSPC compared to 15 mol% DSPC (liver [3]; [14]): approximately 10 times
fluorescence of EGFP in the liver tissues (liver [4]): not detectable
pKa ([5]; Table 1, apparent pKa of Fluc mRNA-loaded lipid nanoparticles, TxT/DSPC/chol/PEG-DMG=50/15/35/1.5 (mol%)): 6.27
pKa [5, 7]: 6.28
pKa [5, 8]: 5.88
pKa [5, 9]: 5.41
pKa [5, 10]: 6.24
pKa [5, 11]: 6.36
pKa [5, 12]: 6.28
